Key:
OE21 cells = assay: Micronuclei formation, OE21; type: cell-based, human; settings: 20 μM Ru1, 24 h incubation
Description: propidium iodide (PI) is standard to quantify DNA content using flow cytometry, bleed-through of the MLCT emission of […]
To remove these artefacts, a higher concentration of Ru1 (100 µM, 10 mins) was additionally applied post-incubation and fixation to treated and control samples, acting as a substitute DNA dye instead of PI. After staining, cells were centrifuged (1000 rpm, 5 mins) and re-suspended in PBS.
Samples were analysed using a Biosciences LSRII Flow Cytometer using the FL2 channel to collect (recognisable) cell-cycle […]
profiles. […] A minimum of
10,000 cells were counted for each sample and data were processed using FloJo software.
Microscopy and immunofluorescence. […]
emission was collected from 500-530 nm to prevent spectral overlap with Ru1 emission. γH2AX foci were counted using […]
The absorbance at 540 nm was quantified by plate reader (reference wavelength 650 nm). The metabolic activity of the cell population was determined as a percentage of a negative (solvent) control. […]
Cell cultures were treated as stated, media containing detached/dead cells were removed and retained, and adherent collected by Trypsin and centrifugation. […] Trypan Blue negative and Trypan Blue positive cells were counted by haemocytometer. A minimum of 200 cells were counted for each sample. […]

OE33 cells = assay: Clonogenic survival assay with IR, OE33; type: cell-based, human; settings: Ru1 2 μM or Cis 500 nM for 24 h before IR
Description: Clonogenic survival assay. OE21, OE33 or FLO1 cells were treated with 2 µM Ru1 for 24 h before irradiation with 0-8 Gy using a 137Cs γ-irradiator (IBL637, CIS Bio Int.; dose rate = 0.809 Gy min−1). 1 h after irradiation, cells were detached using Trypsin and re-seeded in 6 well plates at a density of 300 – 20,000 cells/well in triplicate in an incrementally greater number of cells with increasing IR dose to ensure adequate colony formation. Cells were incubated for 7–14 days after re-seeding to allow colony formation before being fixed with 10% methanol, 10% acetic acid and stained with 0.4% methylene blue. OE33 cells required an additional formaldehyde fixation (4% in PBS, 5 mins) step before the addition of methylene blue solution or colony detachment occurred. Colonies containing 50 cells or greater were counted using a Gelcount instrument and accompanying software (Oxford Optronix). Plating efficiencies were determined for each treatment condition and normalised to an untreated control to provide the surviving fraction (S. F.). S.F. versus radiation dose curves were plotted in GraphPad Prism and fit using a second order polynomial function (R2 values > 0.99). Dose modifying factors (DMF) at a SF=0.1 were calculated using the equation: Dose modifying factor (DMF) = IR dose to give S.F. 0.1/IR dose plus compound to give S.F.0.1. […]

[Ru(phen)2(tpphz)]^2+ [Ru1]
Cells with micronuclei, Percentage (OE21 cells; OE21 (n=1)): 17.8%
Cells with micronuclei, Percentage (OE21 cells; OE21 (n=2)): 15.0%
S.F. (OE33 cells; OE33, IR 0 Gy): 0.956
S.F. (OE33 cells; OE33, IR 2 Gy): 0.447
S.F. (OE33 cells; OE33, IR 4 Gy): 0.083
S.F. (OE33 cells; OE33, IR 6 Gy): 0.014
S.F. (OE33 cells; OE33, IR 8 Gy): 0.003

From article PMC5870190, “A three-in-one-bullet for oesophageal cancer: replication fork collapse, spindle attachment failure and enhanced radiosensitivity generated by a ruthenium(II) metallo-intercalator” (Chemical Science, 2017)
